What follows are compounds tested against GST tagged truncated human mutant G2019S LRRK2 (Homo sapiens (Human), UniProt Q5S007, G2019S) (assay: LRRK2 Km ATP LanthaScreen Assay). Conditions: 134 μM ATP (Km ATP), LRRKtide substrate, negative log of mean IC50 (molar).
Chain of GST tagged truncated human mutant G2019S LRRK2 (Q5S007 970-2527 G2019S): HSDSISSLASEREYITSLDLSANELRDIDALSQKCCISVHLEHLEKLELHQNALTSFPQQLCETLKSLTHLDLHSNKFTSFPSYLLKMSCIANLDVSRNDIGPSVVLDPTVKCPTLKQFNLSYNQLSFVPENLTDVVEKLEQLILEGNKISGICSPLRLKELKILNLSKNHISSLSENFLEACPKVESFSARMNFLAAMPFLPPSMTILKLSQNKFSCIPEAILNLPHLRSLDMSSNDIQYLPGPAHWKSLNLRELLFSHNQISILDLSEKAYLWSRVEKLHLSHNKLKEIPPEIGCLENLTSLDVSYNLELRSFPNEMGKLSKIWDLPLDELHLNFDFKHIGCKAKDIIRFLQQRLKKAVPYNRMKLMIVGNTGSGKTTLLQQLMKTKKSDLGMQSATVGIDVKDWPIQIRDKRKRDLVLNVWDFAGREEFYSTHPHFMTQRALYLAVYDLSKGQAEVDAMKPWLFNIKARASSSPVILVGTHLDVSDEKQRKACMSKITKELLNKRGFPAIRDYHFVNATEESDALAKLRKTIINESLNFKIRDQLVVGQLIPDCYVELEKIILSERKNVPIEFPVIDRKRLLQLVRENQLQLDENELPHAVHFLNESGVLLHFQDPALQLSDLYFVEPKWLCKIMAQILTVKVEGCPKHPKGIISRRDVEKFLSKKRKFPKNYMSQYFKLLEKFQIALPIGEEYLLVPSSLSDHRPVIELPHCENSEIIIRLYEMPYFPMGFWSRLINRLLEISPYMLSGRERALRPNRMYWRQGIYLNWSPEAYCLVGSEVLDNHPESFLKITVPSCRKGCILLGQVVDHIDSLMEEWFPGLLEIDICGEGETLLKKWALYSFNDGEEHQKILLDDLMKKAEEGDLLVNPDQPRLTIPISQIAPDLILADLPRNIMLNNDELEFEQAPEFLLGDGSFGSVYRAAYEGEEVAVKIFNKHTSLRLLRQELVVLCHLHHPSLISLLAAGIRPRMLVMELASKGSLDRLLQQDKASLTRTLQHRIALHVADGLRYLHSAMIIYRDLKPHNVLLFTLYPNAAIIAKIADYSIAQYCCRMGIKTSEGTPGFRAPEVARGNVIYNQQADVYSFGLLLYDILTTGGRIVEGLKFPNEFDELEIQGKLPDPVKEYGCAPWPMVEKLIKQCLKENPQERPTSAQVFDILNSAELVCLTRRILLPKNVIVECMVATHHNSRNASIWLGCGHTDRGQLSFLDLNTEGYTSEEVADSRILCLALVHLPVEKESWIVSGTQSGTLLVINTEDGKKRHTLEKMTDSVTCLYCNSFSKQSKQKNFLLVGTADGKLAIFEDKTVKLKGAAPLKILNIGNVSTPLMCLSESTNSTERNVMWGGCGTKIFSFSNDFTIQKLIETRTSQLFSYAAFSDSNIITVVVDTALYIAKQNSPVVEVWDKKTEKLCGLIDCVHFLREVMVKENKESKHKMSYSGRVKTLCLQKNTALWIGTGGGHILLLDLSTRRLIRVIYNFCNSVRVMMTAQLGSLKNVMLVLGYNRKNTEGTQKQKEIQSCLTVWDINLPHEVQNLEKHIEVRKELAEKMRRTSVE
Format: biochemical
Outline: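 Truncated GST-tagged G2019S LRRK2 (1.25 nM enzyme solution) was preincubated with compound for 15 min at rt, then reacted for 90 min with fluorescein-LRRKtide and 134 μM ATP (Km) in Tris pH 8.5/MgCl2 buffer. After an EDTA stop, TR-FRET used a Tb anti-pERM antibody (520/495 nm ratio). IC50 came from a 4-parameter fit and is reported as pIC50, mean of several runs.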
With `N#CCn1cc(NC(=O)c2csc(-c3cn[nH]c3)n2)c(C(F)F)n1` [Example 7-27, N-[1-(cyanomethyl)-3-(difluoromethyl)-1H-pyrazol-4-yl]-2-(1H-pyrazol-4-yl)-1,3-thiazole-4-carboxamide] the “LRRK2 pIC50” value was 7.50.
With `O=C(Nc1cnn(CC2CCC2)c1)c1cccc(-c2cnn(CCN3CCOCC3)c2)n1` [Example 9-35, N-[1-(cyclobutylmethyl)-1H-pyrazol-4-yl]-6-[1-(2-morpholin-4-ylethyl)-1H-pyrazol-4-yl]pyridine-2-carboxamide] the “LRRK2 pIC50” value was 5.32.
For `O=C(Nc1cnn(CC2CCC2)c1)c1cccc(-c2cnn3c2CCCC3)n1` [Example 9-13, N-[1-(cyclobutylmethyl)-1H-pyrazol-4-yl]-6-(4,5,6,7-tetrahydropyrazolo [1,5-a]pyridin-3-yl)pyridine-2-carboxamide], the “LRRK2 pIC50” value was 7.68.
For `O=C(Nc1cn(CCF)nc1C(F)F)c1csc(-c2cn[nH]c2)n1` [Example 7-9, N-[3-(difluoromethyl)-1-(2-fluoroethyl)-1H-pyrazol-4-yl]-2-(1H-pyrazol-4-yl)-1,3-thiazole-4-carboxamide], the “LRRK2 pIC50” value was 7.75.
With `CCn1cc(NC(=O)c2csc(-c3cn[nH]c3)n2)c(-c2nnc3n2CCCC3)n1` [Example 1-12, N-[1-ethyl-3-(5,6,7,8-tetrahydro[1,2,4]triazolo[4,3-a]pyridin-3-yl)-1H-pyrazol-4-yl]-2-(1H-pyrazol-4-yl)-1,3-thiazole-4-carboxamide] the “LRRK2 pIC50” value was 7.53.
For `N#CC1(c2cccc(C(=O)Nc3cnn(CC4CCC4)c3)n2)CC1` [Example 10-1, 6-(1-Cyanocyclopropyl)-N-(1-(cyclobutylmethyl)-1H-pyrazol-4-yl)picolinamide], the “LRRK2 pIC50” value was 6.90.
For `O=C(Nc1cnn(CC2CCC2)c1)c1cccc(-c2cnn(C(F)F)c2)n1` [Example 9-33, N-[1-(cyclobutylmethyl)-1H-pyrazol-4-yl]-6-[1-(difluoromethyl)-1H-pyrazol-4-yl]pyridine-2-carboxamide], the “LRRK2 pIC50” value was 6.75.
`Cc1nn(C(C2CC2)C2CC2)cc1NC(=O)c1csc(-c2cn[nH]c2)n1` [Example 1-23, N-[1-(dicyclopropyl-methyl)-3-methyl-1H-pyrazol-4-yl]-2-(1H-pyrazol-4-yl)-1,3-thiazole-4-carboxamide] was tested, and the “LRRK2 pIC50” value was 6.59.
With `O=C(Nc1cnn(C2CC2)c1)c1csc(-c2cn[nH]c2)n1` [Example 1-25, N-(1-cyclopropyl-1H-pyrazol-4-yl)-2-(1H-pyrazol-4-yl)-1,3-thiazole-4-carboxamide] the “LRRK2 pIC50” value was 7.65.
In the case of `O=C(Nc1cnn(CC2CCNCC2)c1)c1csc(-c2cn[nH]c2)n1` [Example 7-4, N-{1-[(piperidin-4-yl)methyl]-1H-pyrazol-4-yl}-2-(1H-pyrazol-4-yl)-1,3-thiazole-4-carboxamide], the “LRRK2 pIC50” value is reported as 6.79.
For `O=C(Nc1cnn(C2CCC2)c1)c1cccc(N2CCCCC2)n1` [Example 4-18, N-(1-cyclobutyl-1H-pyrazol-4-yl)-6-(piperidin-1-yl)picolinamide], the “LRRK2 pIC50” value was 5.81.
With `Cc1nn(C(C)C2CC2)cc1NC(=O)c1csc(-c2cn[nH]c2)n1` (single isomer, unassigned) [Example 2-4, (S)- or (R)-N-{1-[1-cyclopropylethyl]-3-methyl-1H-pyrazol-4-yl}-2-(1H-pyrazol-4-yl)-1,3-thiazole-4-carboxamide] the “LRRK2 pIC50” value was 6.82.
`O=C(Nc1cn(C2CC2)nc1C1CC1)c1csc(-c2cn[nH]c2)n1` [Example 1-6, N-(1,3-dicyclopropyl-1H-pyrazol-4-yl)-2-(1H-pyrazol-4-yl)-1,3-thiazole-4-carboxamide] was tested, and the “LRRK2 pIC50” value was 7.84.
With `O=C(Nc1cnn(C2CCC2)c1)c1coc(-c2cn[nH]c2)n1` [Example 1-33, N-(1-cyclobutyl-1H-pyrazol-4-yl)-2-(1H-pyrazol-4-yl)-1,3-oxazole-4-carboxamide] the “LRRK2 pIC50” value was 7.13.
`O=C(Nc1cnn(CC2CCC2)c1)c1csc(-c2cn[nH]c2)n1` [Example 7-1, N-(1-(Cyclobutylmethyl)-1H-pyrazol-4-yl)-2-(1H-pyrazol-4-yl)thiazole-4-carboxamide] was tested, and the “LRRK2 pIC50” value was 7.76.
`O=C(Nc1cnn(CC2(F)COC2)c1)c1csc(-c2cn[nH]c2)n1` [Example 5-1, N-(1-((3-Fluorooxetan-3-yl)methyl)-1H-pyrazol-4-yl)-2-(1H-pyrazol-4-yl)thiazole-4-carboxamide] was tested, and the “LRRK2 pIC50” value was 7.50.
In the case of `CSCC1(Cn2cc(NC(=O)c3csc(-c4cn[nH]c4)n3)cn2)CCC1` [Example 1-27, N-[1-({1-[(methylsulfanyl)methyl]cyclobu-tyl}methyl)-1H-pyrazol-4-yl]-2-(1H-pyrazol-4-yl)-1,3-thiazole-4-carboxamide], the “LRRK2 pIC50” value is reported as 7.77.
In the case of `Cn1cc(-c2cccc(C(=O)Nc3cnn(C4CCC4)c3)n2)cn1` [Example 9-1, N-(1-Cyclobutyl-1H-pyrazol-4-yl)-6-(1-methyl-1H-pyrazol-4-yl)picolinamide], the “LRRK2 pIC50” value is reported as 7.27.
With `COc1nn(CC(F)F)cc1NC(=O)c1csc(-c2cn[nH]c2)n1` [Example 7-20, N-[1-(2,2-difluoroethyl)-3-methoxy-1H-pyrazol-4-yl]-2-(1H-pyrazol-4-yl)-1,3-thiazole-4-carboxamide] the “LRRK2 pIC50” value was 7.58.
With `O=C(Nc1cn(CC2CCC2)nc1C(F)F)c1csc(-c2cn[nH]c2)n1` [Example 7-11, N-[1-(cyclobutylmethyl)-3-(difluoromethyl)-1H-pyrazol-4-yl]-2-(1H-pyrazol-4-yl)-1,3-thiazole-4-carboxamide] the “LRRK2 pIC50” value was 7.55.
For `O=C(Nc1cnn(-c2ccncc2)c1)c1csc(-c2cn[nH]c2)n1` [Example 1-8, 2-(1H-pyrazol-4-yl)-N-(1-pyridin-4-yl-1H-pyrazol-4-yl)-1,3-thiazole-4-carboxamide], the “LRRK2 pIC50” value was 8.07.
With `CN(C)CCCn1cc(NC(=O)c2csc(-c3cn[nH]c3)n2)cn1` [Example 7-6, N-{1-[3-(dimethylamino)propyl]-1H-pyrazol-4-yl}-2-(1H-pyrazol-4-yl)-1,3-thiazole-4-carboxamide] the “LRRK2 pIC50” value was 6.43.
In the case of `Cn1cc(NC(=O)c2csc(-c3cn[nH]c3)n2)cn1` [Example 4-15, N-(1-methyl-1H-pyrazol-4-yl)-2-(1H-pyrazol-4-yl)thiazole-4-carboxamide], the “LRRK2 pIC50” value is reported as 7.28.
In the case of `O=C(Nc1cnn(CC2CCC2)c1)c1cccc(-c2ccoc2)n1` [Example 9-5, N-[1-(cyclobutylmethyl)-1H-pyrazol-4-yl]-6-furan-3-ylpyridine-2-carboxamide], the “LRRK2 pIC50” value is reported as 5.79.
`CC(C#N)n1cc(NC(=O)c2csc(-c3cn[nH]c3)n2)c(C(F)F)n1` (stereo not shown) [Example 7-31, N-[1-(1-cyanoethyl)-3-(difluoromethyl)-1H-pyrazol-4-yl]-2-(1H-pyrazol-4-yl)-1,3-thiazole-4-carboxamide] was tested, and the “LRRK2 pIC50” value was 7.40.
`O=C(Nc1cnn(C2CCC2)c1)c1csc(-c2cnn3c2OCCC3)n1` [Example 9-21, N-(1-cyclobutyl-1H-pyrazol-4-yl)-2-(6,7-dihydro-5H-pyrazolo[5,1-b][1,3]oxazin-3-yl)-1,3-thiazole-4-carboxamide] was tested, and the “LRRK2 pIC50” value was 8.08.
In the case of `CC(C)(C)n1cc(NC(=O)c2csc(-c3cn[nH]c3)n2)cn1` [Example 1-17, N-(1-tert-butyl-1H-pyrazol-4-yl)-2-(1H-pyrazol-4-yl)-1,3-thiazole-4-carboxamide], the “LRRK2 pIC50” value is reported as 7.22.
In the case of `CC1(Cn2cc(NC(=O)c3csc(-c4cn[nH]c4)n3)cn2)CCC1` [Example 1-34, N-{1-[(1-methylcyclobu-tyl)methyl]-1H-pyrazol-4-yl}-2-(1H-pyrazol-4-yl)-1,3-thiazole-4-carboxamide], the “LRRK2 pIC50” value is reported as 7.92.
In the case of `O=C(Nc1cnn(C2CCC2)c1)c1csc(-c2cnn(C(F)F)c2)n1` [Example 9-17, N-(1-cyclobutyl-1H-pyrazol-4-yl)-2-[1-(difluoromethyl)-1H-pyrazol-4-yl]-1,3-thiazole-4-carboxamide], the “LRRK2 pIC50” value is reported as 7.50.
In the case of `O=C(Nc1cnn(CCN2CCNCC2)c1)c1csc(-c2cn[nH]c2)n1` [Example 7-15, N-{1-[2-(piperazin-1-yl)ethyl]-1H-pyrazol-4-yl}-2-(1H-pyrazol-4-yl)-1,3-thiazole-4-carboxamide], the “LRRK2 pIC50” value is reported as 6.36.
`Cn1cc(NC(=O)c2csc(-c3cn[nH]c3)n2)c(C2CC2)n1` [Example 1-42, N-(3-cyclopropyl-1-methyl-1H-pyrazol-4-yl)-2-(1H-pyrazol-4-yl)-1,3-thiazole-4-carboxamide] was tested, and the “LRRK2 pIC50” value was 7.74.
For `CCn1cc(-c2nc(C(=O)Nc3cn(CC(F)(F)F)nc3OC)cs2)cn1` [Example 12-4, 2-(1-ethyl-1H-pyrazol-4-yl)-N-[3-methoxy-1-(2,2,2-trifluoroethyl)-1H-pyrazol-4-yl]-1,3-thiazole-4-carboxamide], the “LRRK2 pIC50” value was 6.57.
`O=C(Nc1cnn(C2CC2)c1)c1coc(-c2cn[nH]c2)n1` [Example 1-18, N-(1-cyclopropyl-1H-pyrazol-4-yl)-2-(1H-pyrazol-4-yl)-1,3-oxazole-4-carboxamide] was tested, and the “LRRK2 pIC50” value was 6.75.
For `O=C(Nc1cnn(C2CCC2)c1)c1cccc(N2CCCC2)n1` [Example 4-16, N-(1-cyclobutyl-1H-pyrazol-4-yl)-6-(pyrrolidin-1-yl)picolinamide], the “LRRK2 pIC50” value was 6.04.
In the case of `O=C(Nc1cnn(CC2CC2)c1)c1csc(-c2cn[nH]c2)n1` [Example 7-38, N-[1-(cyclopropylmethyl)-1H-pyrazol-4-yl]-2-(1H-pyrazol-4-yl)-1,3-thiazole-4-carboxamide], the “LRRK2 pIC50” value is reported as 8.02.
For `O=C(Nc1cnn(CC2CCC2)c1)c1cccc(-c2cnn3c2COCC3)n1` [Example 9-10, N-[1-(cyclobutylmethyl)-1H-pyrazol-4-yl]-6-(6,7-dihydro-4H-pyrazolo[5,1-c][1,4]oxazin-3-yl)pyridine-2-carboxamide], the “LRRK2 pIC50” value was 7.76.

Same assay, conditions: 134 μM ATP (Km ATP), LRRKtide substrate, negative log of mean IC50 (molar), read-out: LRRK2 pIC50 (converted)
`CC(C1CC1)n1cc(NC(=O)c2csc(-c3cn[nH]c3)n2)cn1` (single isomer, unassigned) [Example 2-2, (S)- or (R)—N-(1-(1-cyclopropylethyl)-1H-pyrazol-4-yl)-2-(1H-pyrazol-4-yl)thiazole-4-carboxamide] was tested, and the IC50 was 38 nM.

Reference: patent publication US20240174679A1, “HETEROAROYL AMIDES AS LRRK2 INHIBITORS, PHARMACEUTICAL COMPOSITIONS, AND USES THEREOF” (MERCK SHARP & DOHME LLC, priority 2021, published 2024)
